{"source": "the supplement of paper PMC10307832", "assay_in_all_cases": "relative viability (nuclei count vs DMSO), 5 days (fraction); higher = more cells survive", "key": {"[1]": {"tested_on": "NCI-H2228", "outline": "(§1)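 Values are medians from duplicate plates. Each reflects relative viability, defined as the nuclei count of treated wells over that of vehicle wells. Lung cancer cell lines in 1536-well plates were pin-tool dosed one day after seeding with one drug alone or with a fixed anchor-drug dose plus five library-drug doses (not always all listed) in √10 steps, then fixed, stained and imaged at 4× after 5 days.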"}, "[2]": {"tested_on": "COR-L23", "outline": "as §1"}, "[3]": {"tested_on": "NCI-H23", "outline": "as §1"}, "[4]": {"tested_on": "EMC-BAC-2", "outline": "as §1"}, "[5]": {"tested_on": "HCC-78", "outline": "as §1"}, "[6]": {"tested_on": "ABC-1", "outline": "as §1"}, "[7]": {"tested_on": "LC-2-ad", "outline": "as §1"}, "[8]": {"tested_on": "NCI-H358", "outline": "as §1"}, "[9]": {"tested_on": "NCI-H1793", "outline": "as §1"}, "[10]": {"tested_on": "NCI-H2405", "outline": "as §1"}, "[11]": {"tested_on": "NCI-H1395", "outline": "as §1"}, "[12]": {"tested_on": "NCI-H2023", "outline": "as §1"}, "[13]": {"tested_on": "ChaGo-K-1", "outline": "as §1"}, "[14]": {"tested_on": "NCI-H1944", "outline": "as §1"}, "[15]": {"tested_on": "HCC-15", "outline": "as §1"}, "[16]": {"tested_on": "SK-LU-1", "outline": "as §1"}, "[17]": {"tested_on": "NCI-H838", "outline": "as §1"}, "[18]": {"tested_on": "HOP-62", "outline": "as §1"}, "[19]": {"tested_on": "HCC-366", "outline": "as §1"}, "[20]": {"tested_on": "NCI-H2126", "outline": "as §1"}, "[21]": {"tested_on": "HARA", "outline": "as §1"}, "[22]": {"tested_on": "NCI-H1993", "outline": "as §1"}}}
{"smiles": "CC(=O)O[C@@]12CO[C@@H]1C[C@H](O)[C@@]1(C)C(=O)[C@H](O)C3=C(C)[C@@H](OC(=O)[C@H](O)[C@@H](NC(=O)OC(C)(C)C)c4ccccc4)C[C@@](O)([C@@H](OC(=O)c4ccccc4)[C@H]21)C3(C)C", "note": "[Docetaxel] + O=C(CCCCCCC(=O)Nc1ccccc1)NO [Vorinostat] (partner 1 µM)", "values": [{"measurement": "relative viability", "setting": "[1]; first compound 0.0002 µM", "value": 0.565}, {"measurement": "relative viability", "setting": "[1]; first compound 0.000632 µM", "value": 0.145}, {"measurement": "relative viability", "setting": "[1]; first compound 0.002 µM", "value": 0.168}, {"measurement": "relative viability", "setting": "[1]; first compound 0.006325 µM", "value": 0.151}, {"measurement": "relative viability", "setting": "[1]; first compound 0.02 µM", "value": 0.145}, {"measurement": "relative viability", "setting": "[2]; first compound 0.0002 µM", "value": 0.492}, {"measurement": "relative viability", "setting": "[2]; first compound 0.000632 µM", "value": 0.248}, {"measurement": "relative viability", "setting": "[2]; first compound 0.002 µM", "value": 0.151}, {"measurement": "relative viability", "setting": "[2]; first compound 0.006325 µM", "value": 0.154}, {"measurement": "relative viability", "setting": "[2]; first compound 0.02 µM", "value": 0.0838}, {"measurement": "relative viability", "setting": "[3]; first compound 0.0002 µM", "value": 0.55}, {"measurement": "relative viability", "setting": "[3]; first compound 0.000632 µM", "value": 0.305}, {"measurement": "relative viability", "setting": "[3]; first compound 0.002 µM", "value": 0.165}, {"measurement": "relative viability", "setting": "[3]; first compound 0.006325 µM", "value": 0.155}, {"measurement": "relative viability", "setting": "[3]; first compound 0.02 µM", "value": 0.0848}, {"measurement": "relative viability", "setting": "[4]; first compound 0.0002 µM", "value": 0.388}, {"measurement": "relative viability", "setting": "[4]; first compound 0.000632 µM", "value": 0.293}, {"measurement": "relative viability", "setting": "[4]; first compound 0.002 µM", "value": 0.262}, {"measurement": "relative viability", "setting": "[4]; first compound 0.006325 µM", "value": 0.224}, {"measurement": "relative viability", "setting": "[4]; first compound 0.02 µM", "value": 0.171}, {"measurement": "relative viability", "setting": "[5]; first compound 0.0002 µM", "value": 0.473}, {"measurement": "relative viability", "setting": "[5]; first compound 0.000632 µM", "value": 0.374}, {"measurement": "relative viability", "setting": "[5]; first compound 0.002 µM", "value": 0.261}, {"measurement": "relative viability", "setting": "[5]; first compound 0.006325 µM", "value": 0.31}, {"measurement": "relative viability", "setting": "[5]; first compound 0.02 µM", "value": 0.313}, {"measurement": "relative viability", "setting": "[6]; first compound 0.0002 µM", "value": 1.13}, {"measurement": "relative viability", "setting": "[6]; first compound 0.000632 µM", "value": 0.884}, {"measurement": "relative viability", "setting": "[6]; first compound 0.002 µM", "value": 0.44}, {"measurement": "relative viability", "setting": "[6]; first compound 0.006325 µM", "value": 0.435}, {"measurement": "relative viability", "setting": "[6]; first compound 0.02 µM", "value": 0.338}, {"measurement": "relative viability", "setting": "[7]; first compound 0.0002 µM", "value": 0.472}, {"measurement": "relative viability", "setting": "[7]; first compound 0.000632 µM", "value": 0.275}, {"measurement": "relative viability", "setting": "[7]; first compound 0.002 µM", "value": 0.209}, {"measurement": "relative viability", "setting": "[7]; first compound 0.006325 µM", "value": 0.227}, {"measurement": "relative viability", "setting": "[7]; first compound 0.02 µM", "value": 0.152}, {"measurement": "relative viability", "setting": "[8]; first compound 0.0002 µM", "value": 0.625}, {"measurement": "relative viability", "setting": "[8]; first compound 0.000632 µM", "value": 0.399}, {"measurement": "relative viability", "setting": "[8]; first compound 0.002 µM", "value": 0.109}, {"measurement": "relative viability", "setting": "[8]; first compound 0.006325 µM", "value": 0.112}, {"measurement": "relative viability", "setting": "[8]; first compound 0.02 µM", "value": 0.0606}, {"measurement": "relative viability", "setting": "[9]; first compound 0.0002 µM", "value": 0.724}, {"measurement": "relative viability", "setting": "[9]; first compound 0.000632 µM", "value": 0.479}, {"measurement": "relative viability", "setting": "[9]; first compound 0.002 µM", "value": 0.199}, {"measurement": "relative viability", "setting": "[9]; first compound 0.006325 µM", "value": 0.26}, {"measurement": "relative viability", "setting": "[9]; first compound 0.02 µM", "value": 0.163}, {"measurement": "relative viability", "setting": "[10]; first compound 0.0002 µM", "value": 0.839}, {"measurement": "relative viability", "setting": "[10]; first compound 0.000632 µM", "value": 0.567}, {"measurement": "relative viability", "setting": "[10]; first compound 0.002 µM", "value": 0.546}, {"measurement": "relative viability", "setting": "[10]; first compound 0.006325 µM", "value": 0.394}, {"measurement": "relative viability", "setting": "[10]; first compound 0.02 µM", "value": 0.335}, {"measurement": "relative viability", "setting": "[11]; first compound 0.0002 µM", "value": 0.672}, {"measurement": "relative viability", "setting": "[11]; first compound 0.000632 µM", "value": 0.601}, {"measurement": "relative viability", "setting": "[11]; first compound 0.002 µM", "value": 0.462}, {"measurement": "relative viability", "setting": "[11]; first compound 0.006325 µM", "value": 0.375}, {"measurement": "relative viability", "setting": "[11]; first compound 0.02 µM", "value": 0.239}, {"measurement": "relative viability", "setting": "[12]; first compound 0.0002 µM", "value": 0.466}, {"measurement": "relative viability", "setting": "[12]; first compound 0.002 µM", "value": 0.101}, {"measurement": "relative viability", "setting": "[12]; first compound 0.006325 µM", "value": 0.0951}, {"measurement": "relative viability", "setting": "[12]; first compound 0.02 µM", "value": 0.0577}, {"measurement": "relative viability", "setting": "[13]; first compound 0.0002 µM", "value": 0.733}, {"measurement": "relative viability", "setting": "[13]; first compound 0.000632 µM", "value": 0.591}, {"measurement": "relative viability", "setting": "[13]; first compound 0.002 µM", "value": 0.335}, {"measurement": "relative viability", "setting": "[13]; first compound 0.006325 µM", "value": 0.282}, {"measurement": "relative viability", "setting": "[13]; first compound 0.02 µM", "value": 0.193}, {"measurement": "relative viability", "setting": "[14]; first compound 0.0002 µM", "value": 0.604}, {"measurement": "relative viability", "setting": "[14]; first compound 0.000632 µM", "value": 0.538}, {"measurement": "relative viability", "setting": "[14]; first compound 0.002 µM", "value": 0.423}, {"measurement": "relative viability", "setting": "[14]; first compound 0.006325 µM", "value": 0.223}, {"measurement": "relative viability", "setting": "[14]; first compound 0.02 µM", "value": 0.172}, {"measurement": "relative viability", "setting": "[15]; first compound 0.0002 µM", "value": 0.856}, {"measurement": "relative viability", "setting": "[15]; first compound 0.000632 µM", "value": 0.574}, {"measurement": "relative viability", "setting": "[15]; first compound 0.006325 µM", "value": 0.227}, {"measurement": "relative viability", "setting": "[15]; first compound 0.02 µM", "value": 0.131}, {"measurement": "relative viability", "setting": "[16]; first compound 0.0002 µM", "value": 0.754}, {"measurement": "relative viability", "setting": "[16]; first compound 0.000632 µM", "value": 0.537}, {"measurement": "relative viability", "setting": "[16]; first compound 0.002 µM", "value": 0.38}, {"measurement": "relative viability", "setting": "[16]; first compound 0.006325 µM", "value": 0.349}, {"measurement": "relative viability", "setting": "[16]; first compound 0.02 µM", "value": 0.226}, {"measurement": "relative viability", "setting": "[17]; first compound 0.0002 µM", "value": 0.623}, {"measurement": "relative viability", "setting": "[17]; first compound 0.000632 µM", "value": 0.385}, {"measurement": "relative viability", "setting": "[17]; first compound 0.002 µM", "value": 0.328}, {"measurement": "relative viability", "setting": "[17]; first compound 0.006325 µM", "value": 0.208}, {"measurement": "relative viability", "setting": "[17]; first compound 0.02 µM", "value": 0.16}, {"measurement": "relative viability", "setting": "[18]; first compound 0.0002 µM", "value": 0.522}, {"measurement": "relative viability", "setting": "[18]; first compound 0.000632 µM", "value": 0.346}, {"measurement": "relative viability", "setting": "[19]; first compound 0.0002 µM", "value": 0.299}, {"measurement": "relative viability", "setting": "[19]; first compound 0.000632 µM", "value": 0.0824}, {"measurement": "relative viability", "setting": "[19]; first compound 0.002 µM", "value": 0.0503}, {"measurement": "relative viability", "setting": "[19]; first compound 0.006325 µM", "value": 0.0366}, {"measurement": "relative viability", "setting": "[19]; first compound 0.02 µM", "value": 0.0211}, {"measurement": "relative viability", "setting": "[20]; first compound 0.0002 µM", "value": 0.783}, {"measurement": "relative viability", "setting": "[20]; first compound 0.000632 µM", "value": 0.577}, {"measurement": "relative viability", "setting": "[20]; first compound 0.002 µM", "value": 0.312}, {"measurement": "relative viability", "setting": "[20]; first compound 0.006325 µM", "value": 0.337}, {"measurement": "relative viability", "setting": "[21]; first compound 0.0002 µM", "value": 0.5}, {"measurement": "relative viability", "setting": "[21]; first compound 0.000632 µM", "value": 0.219}, {"measurement": "relative viability", "setting": "[21]; first compound 0.002 µM", "value": 0.148}, {"measurement": "relative viability", "setting": "[21]; first compound 0.006325 µM", "value": 0.215}, {"measurement": "relative viability", "setting": "[21]; first compound 0.02 µM", "value": 0.0839}, {"measurement": "relative viability", "setting": "[22]; first compound 0.0002 µM", "value": 0.594}, {"measurement": "relative viability", "setting": "[22]; first compound 0.000632 µM", "value": 0.499}, {"measurement": "relative viability", "setting": "[22]; first compound 0.002 µM", "value": 0.376}, {"measurement": "relative viability", "setting": "[22]; first compound 0.006325 µM", "value": 0.392}, {"measurement": "relative viability", "setting": "[22]; first compound 0.02 µM", "value": 0.246}]}
